# Laboratory results taken from patent publication US6930123B2, “sPLA2 inhibitors” (Eli Lilly and Company, priority 2000, dated 2005).
# What was measured:
# [1] = biological target: T1, recombinant human secreted phospholipase A2 (Homo sapiens, UniProt P14555); assay: chromogenic assay for inhibitors of recombinant human secreted phospholipase A2; format: biochemical; conditions: diheptanoyl thio-PC substrate, pH 7.5, 40° C. for 30 minutes, absorbance at 405 nanometers, titrated in triplicate
# T1 sequence (P14555 21-144): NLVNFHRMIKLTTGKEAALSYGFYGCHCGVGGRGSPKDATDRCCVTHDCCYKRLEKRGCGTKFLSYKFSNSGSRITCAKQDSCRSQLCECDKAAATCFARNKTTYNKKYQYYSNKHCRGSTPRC
# Source text: The following chromogenic assay procedure was used to identify and evaluate inhibitors of recombinant human secreted phospholipase A2. The assay described herein has been adapted for high volume screening using 96 well microtiter plates. A general description of this assay method is found in the article, “Analysis of Human Synovial Fluid Phospholipase A2 on Short Chain Phosphatidylcholine-Mixed Micelles: Development of a Spectrophotometric Assay Suitable for a Microtiterplate Reader”, by Laure J. Reynolds, Lori L. Hughes, and Edward A Dennis, Analytical Biochemistry, 204, pp. 190-197, 1992 (the disclosure of which is incorporated herein by reference):
# A measured volume of racemic dipheptanoyl thio PC supplied in chloroform at a concentration of 100 mg/ml is taken to dryness and redissolved in 10 millimolar TRITON X-100™ nonionic detergent aqueous solution. Reaction Buffer is added to the solution, then DTNB to give the Reaction Mixture.
# The reaction mixture thus obtained contains 1 mM diheptanoly thio-PC substrate, 0.29 mm Triton X-100™ detergent, and 0.12 mm DTMB in a buffered aqueous solution at pH 7.5.
# • 1. Add 0.2 ml reaction mixture to all wells; • 2. Add 10 ul test compound (or solvent blank) to appropriate wells, mix 20 seconds; • 3. Add 50 nanograms of sPLA2 (10 microliters) to appropriate wells; • 4. Incubate plate at 40° C. for 30 minutes; • 5. Read absorbance of wells at 405 nanometers with an automatic plate reader.
# Tests were done in triplicate. Typically, compounds were tested at a final concentration of 5 ug/ml. […] Lack of color development at 405 nanometers evidenced inhibition. Compounds initially found to be active were re-assayed to confirm their activity and, if sufficiently active, IC50 values were determined. […] In all cases, % inhibition measured at 405 nanometers generated by enzyme reactions containing inhibitors relative to the uninhibited control reactions was determined. […] IC50 values were determined by plotting log concentration versus inhibition values in the range from 10-90% inhibition.
IC50 [1],melting point,Structure (SMILES)
14.3 µM,,"CCc1c(C(=O)C(N)=O)c2c(OCC(=O)OCc3ccccc3)c3ccccc3cc2n1Cc1ccccc1 [Example 2, 2-[[3-(2-amino-1,2-dioxoethyl)-1-benzyl-2-ethyl-1H-benz[f]indol-4-yl]oxy]acetic acid benzyl ester]"
1.3 µM,,"CCOC(=O)COc1c2ccccc2cc2c1c(C(=O)C(N)=O)c(CC)n2Cc1ccccc1 [Example 1, 2-[[3-(2-amino-1,2-dioxoethyl)-1-benzyl-2-ethyl-1H-benz[f]indol-4-yl]oxy]acetic acid ethyl ester]"
1.06 µM,243 to 253 °C (dec.),"CCc1c(C(=O)C(N)=O)c2c(OCC(=O)O)c3ccccc3cc2n1Cc1ccccc1 [Example 3, 2-[[3-(2-amino-1,2-dioxoethyl)-1-benzyl-2-ethyl-1H-benz[f]indol-4-yl]oxy]acetic acid]"
